Experimental data as given in BindingDB's records for doi:10.1021/jm800052b (Genentech, 2008).

What was measured:
Aurora kinase B = Aurora kinase B (Homo sapiens, UniProt Q96GD4); assay: Enzyme Inhibition Assay; conditions: pH 7.5; 22 °C
Experimental: (§1) Aurora kinase was assayed in ELISA format using a GST fusion of the N-terminus of Histone H3 as substrate. Plates were coated with substrate, and then blocked with I-block (Tropix) in PBS. After kinase reaction, product was detected by incubation with antiphosphohistone H3 (Ser10) 6G3 mouse monoclonal antibody and sheep-antimouse HRP conjugate, followed by washing and addition of TMB substrate.

Aurora kinase A = target: T1, Aurora kinase A (Homo sapiens, UniProt O14965); assay: Enzyme Inhibition Assay; conditions: pH 7.5; 22 °C
T1 sequence (O14965 whole entry): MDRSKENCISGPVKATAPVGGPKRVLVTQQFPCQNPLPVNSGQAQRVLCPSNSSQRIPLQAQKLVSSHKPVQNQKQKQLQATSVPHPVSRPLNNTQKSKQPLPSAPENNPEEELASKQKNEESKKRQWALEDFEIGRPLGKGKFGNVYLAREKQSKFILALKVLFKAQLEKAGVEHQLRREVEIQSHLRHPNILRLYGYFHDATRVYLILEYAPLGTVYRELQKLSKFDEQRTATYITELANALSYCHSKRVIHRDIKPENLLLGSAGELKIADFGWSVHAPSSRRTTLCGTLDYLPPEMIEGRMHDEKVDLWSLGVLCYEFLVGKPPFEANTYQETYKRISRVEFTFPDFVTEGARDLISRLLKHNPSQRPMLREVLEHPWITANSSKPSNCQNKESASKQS
Experimental: as §1

Aurora kinase B, sequence (Q96GD4 whole entry, the tested form may be a part): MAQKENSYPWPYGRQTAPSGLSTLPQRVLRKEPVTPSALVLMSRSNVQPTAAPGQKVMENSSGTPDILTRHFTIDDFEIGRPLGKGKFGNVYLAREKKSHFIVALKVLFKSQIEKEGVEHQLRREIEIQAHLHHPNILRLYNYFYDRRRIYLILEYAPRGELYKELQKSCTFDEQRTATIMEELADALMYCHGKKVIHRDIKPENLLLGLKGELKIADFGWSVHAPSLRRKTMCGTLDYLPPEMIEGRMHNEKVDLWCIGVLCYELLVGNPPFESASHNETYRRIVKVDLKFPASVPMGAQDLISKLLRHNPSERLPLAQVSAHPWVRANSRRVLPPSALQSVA

IC50 (Aurora kinase B) [nM] | IC50 (Aurora kinase A) [nM] | SMILES
22 | 42 | Cc1[nH]nc2c1CCCc1c-2[nH]c2ccccc12 [5-methyl-3,4,17-triazatetracyclo[8.7.0.0^{2,6}.0^{11,16}]heptadeca-1(10),2,5,11,13,15-hexaene]
< 2 |  | Cc1[nH]nc2c1CCCc1c-2[nH]c2cc3c(cc12)NC(=O)C3(C)C [7,7,16-trimethyl-5,11,14,15-tetraazapentacyclo[10.8.0.0^{2,10}.0^{4,8}.0^{13,17}]icosa-1(12),2,4(8),9,13,16-hexaen-6-one]
